# Laboratory results as given in patent US20080009418A1, “Selective Inhibitors” (Alchemia LTD., priority 2004, published 2008).
# Legend:
# Human δ-opioid (DOP) = target: T1, Human δ-opioid (DOP) (Homo sapiens, UniProt P41143); assay: Radioligand binding, human δ-opioid (DOP) membranes, FlashPlate, [3H]-Bremazocine; details: compound at 10 μM, [3H]-Bremazocine
# T1 construct: purchased Perkin Elmer Biosignal
# Method in brief: (§1)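 Cloned human receptor membranes were coated onto FlashPlate wells and incubated with radioligand and compound (added from a 0.5 mM DMSO daughter plate) for 1 hour at room temperature in the dark. Scintillation counting gave percent inhibition, with DMSO defining total and reference ligand defining non-specific binding.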
# Human neurokinin (NK1) = target: T2, Human neurokinin (NK1) (Homo sapiens, UniProt P25103); assay: Radioligand binding, human neurokinin NK1 membranes, filtration, [125I]-Substance P; details: compound at 10 μM, [125I]-Substance P
# T2 construct: purchased Perkin Elmer Biosignal
# T2 sequence (P25103 whole entry): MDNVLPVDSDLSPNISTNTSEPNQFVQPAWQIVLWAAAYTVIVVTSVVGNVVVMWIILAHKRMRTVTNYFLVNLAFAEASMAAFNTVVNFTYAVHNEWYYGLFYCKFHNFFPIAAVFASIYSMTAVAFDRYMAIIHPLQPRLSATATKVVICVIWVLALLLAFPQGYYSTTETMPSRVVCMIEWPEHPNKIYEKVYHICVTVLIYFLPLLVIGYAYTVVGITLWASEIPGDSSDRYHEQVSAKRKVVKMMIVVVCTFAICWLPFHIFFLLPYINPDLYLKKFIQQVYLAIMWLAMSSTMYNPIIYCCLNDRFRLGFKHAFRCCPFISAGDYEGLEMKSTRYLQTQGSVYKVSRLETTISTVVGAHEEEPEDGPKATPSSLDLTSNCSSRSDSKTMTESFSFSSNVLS
# Method in brief: (§2)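 Percent inhibition of radioligand binding measured on recombinant human membranes: NK1 with [125I]-Substance P, KOP with [3H]-Diprenorphine. Incubation 1 h at room temperature, then harvest onto 0.3% PEI-soaked filters, cold Tris-HCl pH 7.4 washes and scintillation counting; non-specific binding from reference ligand wells.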
# [1] = target: T3, Human melanin-concentrating hormone (MCH1) (Homo sapiens, UniProt Q99705); assay: Radioligand binding, human melanin-concentrating hormone MCH1 membranes, FlashPlate, [125I]-S36057; details: compound at 10 μM
# T3 construct: purchased Perkin Elmer Biosignal
# T3 sequence (Q99705 whole entry): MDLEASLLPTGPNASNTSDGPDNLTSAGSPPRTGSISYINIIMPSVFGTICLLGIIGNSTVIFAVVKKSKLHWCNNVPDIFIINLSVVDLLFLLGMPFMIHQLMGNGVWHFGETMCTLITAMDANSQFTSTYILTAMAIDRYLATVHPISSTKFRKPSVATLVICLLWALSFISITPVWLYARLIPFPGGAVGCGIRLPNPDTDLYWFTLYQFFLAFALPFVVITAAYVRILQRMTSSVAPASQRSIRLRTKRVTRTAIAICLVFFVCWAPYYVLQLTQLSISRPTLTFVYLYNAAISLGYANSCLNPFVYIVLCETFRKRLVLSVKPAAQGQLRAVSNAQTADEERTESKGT
# Method in brief: as §1
# Human opioid (ORL1) = target: T4, Human opioid (ORL1) (Homo sapiens, UniProt P41146); assay: Radioligand binding, human opioid ORL1 membranes, FlashPlate, [125I]-Nociceptin; details: compound at 10 μM, [125I]-Nociceptin
# T4 construct: purchased Perkin Elmer Biosignal
# T4 sequence (P41146 whole entry): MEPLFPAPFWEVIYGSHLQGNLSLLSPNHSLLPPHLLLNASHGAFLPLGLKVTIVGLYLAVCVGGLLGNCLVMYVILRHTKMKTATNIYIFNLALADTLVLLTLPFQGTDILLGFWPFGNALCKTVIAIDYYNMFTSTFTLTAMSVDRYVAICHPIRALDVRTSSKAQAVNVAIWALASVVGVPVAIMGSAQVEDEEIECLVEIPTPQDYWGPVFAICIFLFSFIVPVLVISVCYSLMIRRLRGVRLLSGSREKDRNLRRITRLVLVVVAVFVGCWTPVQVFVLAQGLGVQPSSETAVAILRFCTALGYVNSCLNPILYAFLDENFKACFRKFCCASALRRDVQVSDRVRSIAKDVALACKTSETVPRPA
# Method in brief: as §1
# Human Melanocortin (MC4) = target: T5, Human Melanocortin (MC4) (Homo sapiens, UniProt P32245); assay: Radioligand binding, human melanocortin MC4 membranes, FlashPlate, [125I]-NDP-αMSH; details: compound at 10 μM, [125I]-NDP-αMSH
# T5 construct: purchased Perkin Elmer Biosignal
# T5 sequence (P32245 whole entry): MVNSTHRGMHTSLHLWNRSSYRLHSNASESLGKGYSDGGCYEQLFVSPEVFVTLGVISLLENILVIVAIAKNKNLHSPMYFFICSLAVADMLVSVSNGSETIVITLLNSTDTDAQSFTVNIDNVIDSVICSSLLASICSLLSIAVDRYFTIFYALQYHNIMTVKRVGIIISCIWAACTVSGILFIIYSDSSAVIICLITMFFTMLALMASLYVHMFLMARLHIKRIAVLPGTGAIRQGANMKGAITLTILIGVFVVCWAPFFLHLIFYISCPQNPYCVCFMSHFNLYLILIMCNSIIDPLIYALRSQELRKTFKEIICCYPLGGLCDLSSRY
# Method in brief: as §1
# Human μ-opioid (MOP) = target: T6, Human μ-opioid (MOP) (Homo sapiens, UniProt P35372); assay: Radioligand binding, human μ-opioid (MOP) membranes, FlashPlate, [3H]-Naloxone; details: compound at 10 μM, [3H]-Naloxone
# T6 construct: purchased Perkin Elmer Biosignal
# T6 sequence (P35372 whole entry): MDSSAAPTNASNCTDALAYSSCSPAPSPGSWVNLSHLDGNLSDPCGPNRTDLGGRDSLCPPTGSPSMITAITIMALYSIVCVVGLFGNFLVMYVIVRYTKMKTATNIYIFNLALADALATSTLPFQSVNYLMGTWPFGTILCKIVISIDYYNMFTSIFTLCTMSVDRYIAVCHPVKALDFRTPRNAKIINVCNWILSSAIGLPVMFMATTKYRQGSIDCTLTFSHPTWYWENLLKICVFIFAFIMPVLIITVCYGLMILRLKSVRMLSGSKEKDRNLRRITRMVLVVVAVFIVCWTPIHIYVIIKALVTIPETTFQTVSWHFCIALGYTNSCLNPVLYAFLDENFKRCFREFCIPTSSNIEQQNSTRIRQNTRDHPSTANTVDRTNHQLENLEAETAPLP
# Method in brief: as §1
# Human κ-Opioid (KOP) = target: T7, Human κ-Opioid (KOP) (Homo sapiens, UniProt P41145); assay: Radioligand binding, human κ-opioid (KOP) membranes, filtration, [3H]-Diprenorphine; details: compound at 10 μM, [3H]-Diprenorphine
# T7 construct: purchased Perkin Elmer Biosignal
# T7 sequence (P41145 whole entry): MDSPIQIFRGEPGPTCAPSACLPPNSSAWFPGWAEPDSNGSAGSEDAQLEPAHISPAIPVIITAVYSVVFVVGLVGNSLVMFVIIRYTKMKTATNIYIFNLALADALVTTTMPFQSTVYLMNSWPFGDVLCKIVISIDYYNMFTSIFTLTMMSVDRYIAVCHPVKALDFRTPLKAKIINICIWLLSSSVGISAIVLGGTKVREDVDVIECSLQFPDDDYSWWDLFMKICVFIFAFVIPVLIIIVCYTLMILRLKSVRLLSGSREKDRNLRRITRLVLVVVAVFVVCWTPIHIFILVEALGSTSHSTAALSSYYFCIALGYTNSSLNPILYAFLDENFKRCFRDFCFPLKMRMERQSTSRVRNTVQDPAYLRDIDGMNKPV
# Method in brief: as §2
# Mouse urotensin (mUR2) = target: T8, Mouse urotensin (mUR2) (Mus musculus, UniProt Q8VIH9); assay: Radioligand binding, mouse urotensin mUR2 membranes, FlashPlate, [125I]-Urotensin II; details: compound at 10 μM, [125I]-Urotensin II
# T8 construct: purchased Perkin Elmer Biosignal
# T8 sequence (Q8VIH9 1-385): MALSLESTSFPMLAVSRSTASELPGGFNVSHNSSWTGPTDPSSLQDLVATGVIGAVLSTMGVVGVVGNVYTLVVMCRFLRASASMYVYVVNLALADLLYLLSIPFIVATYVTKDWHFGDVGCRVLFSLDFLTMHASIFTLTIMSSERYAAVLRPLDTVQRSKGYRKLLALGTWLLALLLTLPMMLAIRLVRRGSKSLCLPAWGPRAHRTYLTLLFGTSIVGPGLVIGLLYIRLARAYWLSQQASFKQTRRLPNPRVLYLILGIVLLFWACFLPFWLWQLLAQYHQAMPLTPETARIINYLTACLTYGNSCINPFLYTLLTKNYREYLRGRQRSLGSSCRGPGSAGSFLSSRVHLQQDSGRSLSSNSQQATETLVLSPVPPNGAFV
# Method in brief: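 Cloned mouse urotensin (mUR2) receptor membranes from Perkin Elmer Biosignal were immobilized in FlashPlate microplates using a proprietary coating. Each well got 19.5 μl buffer, then 0.5 μl of DMSO, reference ligand, or compound. Adding 5 μl of [125I]-Urotensin II, diluted to 5× final concentration in binding buffer, started binding. Plates were sealed with TopSeal-A and incubated 1 hour at room temperature in the dark. Wells were counted for 30 seconds each on a TopCount after a 60-second delay, and percentage inhibition was calculated.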
# Human melanocortin (MC5) = target: T9, Human melanocortin (MC5) (Homo sapiens, UniProt P33032); assay: Radioligand binding, human melanocortin MC5 membranes, FlashPlate, [125I]-NDP-αMSH; details: compound at 10 μM, [125I]-NDP-αMSH
# T9 construct: purchased Perkin Elmer Biosignal
# T9 sequence (P33032 whole entry): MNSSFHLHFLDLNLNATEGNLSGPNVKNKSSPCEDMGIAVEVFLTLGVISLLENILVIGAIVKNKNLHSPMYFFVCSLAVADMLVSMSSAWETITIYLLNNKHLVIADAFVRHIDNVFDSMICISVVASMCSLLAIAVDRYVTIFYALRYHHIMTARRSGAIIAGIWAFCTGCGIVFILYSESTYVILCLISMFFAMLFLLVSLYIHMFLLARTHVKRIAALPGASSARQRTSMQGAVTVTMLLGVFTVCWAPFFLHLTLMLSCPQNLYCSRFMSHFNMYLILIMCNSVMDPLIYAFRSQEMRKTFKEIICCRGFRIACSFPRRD
# Method in brief: as §1
# [2] = target: T10, Human neuropeptide Y (NPY-Y1) (Homo sapiens, UniProt P25929); assay: Radioligand binding, human neuropeptide Y NPY-Y1 membranes, FlashPlate, [125I]-PYY; details: compound at 10 μM, [125I]-PYY
# T10 construct: purchased Perkin Elmer Biosignal
# T10 sequence (P25929 1-384): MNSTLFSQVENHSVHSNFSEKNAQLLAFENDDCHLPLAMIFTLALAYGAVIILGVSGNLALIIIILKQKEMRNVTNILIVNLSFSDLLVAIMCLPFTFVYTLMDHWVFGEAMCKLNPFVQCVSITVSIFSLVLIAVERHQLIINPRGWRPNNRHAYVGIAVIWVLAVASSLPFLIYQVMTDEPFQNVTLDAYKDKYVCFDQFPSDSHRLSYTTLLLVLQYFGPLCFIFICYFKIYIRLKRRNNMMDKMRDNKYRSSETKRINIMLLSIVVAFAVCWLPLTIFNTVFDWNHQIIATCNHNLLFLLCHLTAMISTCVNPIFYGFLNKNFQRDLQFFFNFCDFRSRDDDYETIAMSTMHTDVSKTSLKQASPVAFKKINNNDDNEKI
# Method in brief: as §1
# Human Melanocortin (MC3) = target: T11, Human Melanocortin (MC3) (Homo sapiens, UniProt P41968); assay: Radioligand binding, human melanocortin MC3 membranes, FlashPlate, [125I]-NDP-αMSH; details: compound at 10 μM, [125I]-NDP-αMSH
# T11 construct: purchased Perkin Elmer Biosignal
# T11 sequence (P41968 whole entry): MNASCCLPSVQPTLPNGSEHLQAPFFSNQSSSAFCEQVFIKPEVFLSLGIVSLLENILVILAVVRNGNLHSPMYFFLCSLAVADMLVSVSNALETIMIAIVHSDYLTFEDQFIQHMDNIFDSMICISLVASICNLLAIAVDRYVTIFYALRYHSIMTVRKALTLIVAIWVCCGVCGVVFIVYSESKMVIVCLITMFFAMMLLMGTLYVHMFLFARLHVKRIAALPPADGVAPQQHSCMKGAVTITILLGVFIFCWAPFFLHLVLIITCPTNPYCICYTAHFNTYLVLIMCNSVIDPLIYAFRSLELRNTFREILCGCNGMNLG
# Method in brief: as §1
# T1 sequence (P41143 whole entry): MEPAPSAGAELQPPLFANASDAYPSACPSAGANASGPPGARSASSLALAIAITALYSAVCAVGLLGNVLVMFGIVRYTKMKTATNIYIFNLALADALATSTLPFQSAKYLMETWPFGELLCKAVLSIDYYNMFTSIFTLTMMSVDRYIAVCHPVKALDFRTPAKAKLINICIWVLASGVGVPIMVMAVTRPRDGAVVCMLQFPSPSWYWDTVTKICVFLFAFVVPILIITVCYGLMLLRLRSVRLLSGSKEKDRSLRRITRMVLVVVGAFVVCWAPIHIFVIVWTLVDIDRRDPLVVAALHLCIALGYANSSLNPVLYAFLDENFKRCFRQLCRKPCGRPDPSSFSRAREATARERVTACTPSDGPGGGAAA
smiles,measurement,setting,value
CSC1OC(COCc2ccc3ccccc3c2)C(O)C(OCc2ccc3ccccc3c2)C1NC(=O)CNC(=N)N (stereo not shown) [compound 317],"A1: inhibition of radioligand binding, human δ-opioid (DOP)",Human δ-opioid (DOP),− (“−” indicates less than 50% inhibition at 10 μM)
same,"A8: inhibition of radioligand binding, human neurokinin (NK1)",Human neurokinin (NK1),+ (“+” indicates greater than 50% inhibition at 10 μM)
same,"A6: inhibition of radioligand binding, human melanin-concentrating hormone (MCH1)",[1]; [125I]-S36057,− (“−” indicates less than 50% inhibition at 10 μM)
same,"A10: inhibition of radioligand binding, human opioid (ORL1)",Human opioid (ORL1),− (“−” indicates less than 50% inhibition at 10 μM)
same,"A4: inhibition of radioligand binding, human melanocortin (MC4)",Human Melanocortin (MC4),− (“−” indicates less than 50% inhibition at 10 μM)
same,"A7: inhibition of radioligand binding, human μ-opioid (MOP)",Human μ-opioid (MOP),− (“−” indicates less than 50% inhibition at 10 μM)
same,"A2: inhibition of radioligand binding, human κ-opioid (KOP)",Human κ-Opioid (KOP),− (“−” indicates less than 50% inhibition at 10 μM)
same,"A11: inhibition of radioligand binding, mouse urotensin (mUR2)",Mouse urotensin (mUR2),− (“−” indicates less than 50% inhibition at 10 μM)
same,"A5: inhibition of radioligand binding, human melanocortin (MC5)",Human melanocortin (MC5),+ (“+” indicates greater than 50% inhibition at 10 μM)
same,"A9: inhibition of radioligand binding, human neuropeptide Y (NPY-Y1)",[2],− (“−” indicates less than 50% inhibition at 10 μM)
same,"A3: inhibition of radioligand binding, human melanocortin (MC3)",Human Melanocortin (MC3),− (“−” indicates less than 50% inhibition at 10 μM)
CO[C@H]1[C@H](O)[C@@H](COCc2ccc3ccccc3c2)OC(OCc2ccc(Cl)cc2)[C@@H]1NC(=O)C1CCCN1 (stereo partly shown) [compound 352],"A1: inhibition of radioligand binding, human δ-opioid (DOP)",Human δ-opioid (DOP),− (“−” indicates less than 50% inhibition at 10 μM)
same,"A8: inhibition of radioligand binding, human neurokinin (NK1)",Human neurokinin (NK1),+ (“+” indicates greater than 50% inhibition at 10 μM)
same,"A6: inhibition of radioligand binding, human melanin-concentrating hormone (MCH1)",[1]; [125I]-S36057,− (“−” indicates less than 50% inhibition at 10 μM)
same,"A10: inhibition of radioligand binding, human opioid (ORL1)",Human opioid (ORL1),− (“−” indicates less than 50% inhibition at 10 μM)
same,"A4: inhibition of radioligand binding, human melanocortin (MC4)",Human Melanocortin (MC4),− (“−” indicates less than 50% inhibition at 10 μM)
same,"A7: inhibition of radioligand binding, human μ-opioid (MOP)",Human μ-opioid (MOP),− (“−” indicates less than 50% inhibition at 10 μM)
same,"A2: inhibition of radioligand binding, human κ-opioid (KOP)",Human κ-Opioid (KOP),− (“−” indicates less than 50% inhibition at 10 μM)
same,"A11: inhibition of radioligand binding, mouse urotensin (mUR2)",Mouse urotensin (mUR2),− (“−” indicates less than 50% inhibition at 10 μM)
same,"A5: inhibition of radioligand binding, human melanocortin (MC5)",Human melanocortin (MC5),− (“−” indicates less than 50% inhibition at 10 μM)
same,"A9: inhibition of radioligand binding, human neuropeptide Y (NPY-Y1)",[2],− (“−” indicates less than 50% inhibition at 10 μM)
same,"A3: inhibition of radioligand binding, human melanocortin (MC3)",Human Melanocortin (MC3),− (“−” indicates less than 50% inhibition at 10 μM)
"NCCCC(=O)NC1C(OCc2ccc3ccccc3c2)OC(COCc2ccc(Cl)cc2)C(O)C1OCc1ccc2ccccc2c1 (single isomer, unassigned) [compound 464]",A1: inhibition of radioligand binding,Human δ-opioid (DOP); human DOP membranes,− (“−” indicates less than 50% inhibition at 10 μM)
same,A8: inhibition of radioligand binding,Human neurokinin (NK1); human NK1 membranes,+ (“+” indicates greater than 50% inhibition at 10 μM)
same,A6: inhibition of radioligand binding,"[1]; [125I]-S36057, human MCH1 membranes, 10 µM",+ (“+” indicates greater than 50% inhibition at 10 μM)
same,A10: inhibition of radioligand binding,"Human opioid (ORL1); human ORL1 membranes, 10 µM",+ (“+” indicates greater than 50% inhibition at 10 μM)
same,A4: inhibition of radioligand binding,Human Melanocortin (MC4); human MC4 membranes,+ (“+” indicates greater than 50% inhibition at 10 μM)
same,A7: inhibition of radioligand binding,Human μ-opioid (MOP); human MOP membranes,− (“−” indicates less than 50% inhibition at 10 μM)
same,A2: inhibition of radioligand binding,"Human κ-Opioid (KOP); human KOP membranes, 10 µM",− (“−” indicates less than 50% inhibition at 10 μM)
same,A11: inhibition of radioligand binding,Mouse urotensin (mUR2); mouse mUR2 membranes,− (“−” indicates less than 50% inhibition at 10 μM)
same,A5: inhibition of radioligand binding,Human melanocortin (MC5); human MC5 membranes,+ (“+” indicates greater than 50% inhibition at 10 μM)
same,A9: inhibition of radioligand binding,[2]; human NPY-Y1 membranes,− (“−” indicates less than 50% inhibition at 10 μM)
same,A3: inhibition of radioligand binding,Human Melanocortin (MC3); human MC3 membranes,+ (“+” indicates greater than 50% inhibition at 10 μM)
CO[C@H]1[C@H](O)[C@@H](COCc2cccc(O)c2)OC(OCc2ccc3ccccc3c2)[C@@H]1NC(=O)CNC(=N)N (stereo partly shown) [compound 150],"A1 radioligand binding, percentage inhibition",Human δ-opioid (DOP),− (“−” indicates less than 50% inhibition at 10 μM)
same,"A8 radioligand binding, percentage inhibition",Human neurokinin (NK1),− (“−” indicates less than 50% inhibition at 10 μM)
same,"A6 radioligand binding, percentage inhibition",[1]; [125I]-S36057,− (“−” indicates less than 50% inhibition at 10 μM)
same,"A10 radioligand binding, percentage inhibition",Human opioid (ORL1),− (“−” indicates less than 50% inhibition at 10 μM)
same,"A4 radioligand binding, percentage inhibition",Human Melanocortin (MC4),− (“−” indicates less than 50% inhibition at 10 μM)
same,"A7 radioligand binding, percentage inhibition",Human μ-opioid (MOP),+ (“+” indicates greater than 50% inhibition at 10 μM)
same,"A2 radioligand binding, percentage inhibition",Human κ-Opioid (KOP),+ (“+” indicates greater than 50% inhibition at 10 μM)
same,"A11 radioligand binding, percentage inhibition",Mouse urotensin (mUR2),− (“−” indicates less than 50% inhibition at 10 μM)
same,"A5 radioligand binding, percentage inhibition",Human melanocortin (MC5),+ (“+” indicates greater than 50% inhibition at 10 μM)
same,"A9 radioligand binding, percentage inhibition",[2],− (“−” indicates less than 50% inhibition at 10 μM)
same,"A3 radioligand binding, percentage inhibition",Human Melanocortin (MC3),− (“−” indicates less than 50% inhibition at 10 μM)
CSC1OC(COCc2ccc3ccccc3c2)C(O)C(OCc2ccc3ccccc3c2)C1NC(=O)CN (stereo not shown) [compound 316],"A1: inhibition of radioligand binding, human δ-opioid (DOP)",Human δ-opioid (DOP),− (“−” indicates less than 50% inhibition at 10 μM)
same,"A8: inhibition of radioligand binding, human neurokinin (NK1)",Human neurokinin (NK1),+ (“+” indicates greater than 50% inhibition at 10 μM)
same,"A6: inhibition of radioligand binding, human melanin-concentrating hormone (MCH1)",[1]; [125I]-S36057,− (“−” indicates less than 50% inhibition at 10 μM)
same,"A10: inhibition of radioligand binding, human opioid (ORL1)",Human opioid (ORL1),− (“−” indicates less than 50% inhibition at 10 μM)
same,"A4: inhibition of radioligand binding, human melanocortin (MC4)",Human Melanocortin (MC4),+ (“+” indicates greater than 50% inhibition at 10 μM)
same,"A7: inhibition of radioligand binding, human μ-opioid (MOP)",Human μ-opioid (MOP),− (“−” indicates less than 50% inhibition at 10 μM)
same,"A2: inhibition of radioligand binding, human κ-opioid (KOP)",Human κ-Opioid (KOP),− (“−” indicates less than 50% inhibition at 10 μM)
same,"A11: inhibition of radioligand binding, mouse urotensin (mUR2)",Mouse urotensin (mUR2),− (“−” indicates less than 50% inhibition at 10 μM)
same,"A5: inhibition of radioligand binding, human melanocortin (MC5)",Human melanocortin (MC5),− (“−” indicates less than 50% inhibition at 10 μM)
same,"A9: inhibition of radioligand binding, human neuropeptide Y (NPY-Y1)",[2],− (“−” indicates less than 50% inhibition at 10 μM)
same,"A3: inhibition of radioligand binding, human melanocortin (MC3)",Human Melanocortin (MC3),− (“−” indicates less than 50% inhibition at 10 μM)
